Experiments:
[1] = compound: CC(=O)c1c(C)c2cnc(Nc3ccc(N4CCNCC4)cn3)nc2n(C2CCCC2)c1=O
Volasertib/BI6727 = compound: CC[C@@H]1C(=O)N(C)c2cnc(Nc3ccc(C(=O)N[C@H]4CC[C@H](N5CCN(CC6CC6)CC5)CC4)cc3OC)nc2N1C(C)C [Volasertib/BI6727]
THZ531 [2] = compound: T1, CN(C)C/C=C/C(=O)Nc1ccc(C(=O)N2CCC[C@@H](Nc3ncc(Cl)c(-c4c[nH]c5ccccc45)n3)C2)cc1 [THZ531]
Dasatinib = compound: Cc1nc(Nc2ncc(C(=O)Nc3c(C)cccc3Cl)s2)cc(N2CCN(CCO)CC2)n1 [Dasatinib]
[3] = compound: CO[C@@H](C)Cn1c(=O)n(C)c2cnc3ccc(-c4cncc(C(C)(C)O)c4)cc3c21
Doxorubicin = compound: COc1cccc2c1C(=O)c1c(O)c3c(c(O)c1C2=O)C[C@@](O)(C(=O)CO)C[C@@H]3O[C@H]1C[C@H](N)[C@H](O)[C@H](C)O1 [Doxorubicin]
BSJ-01-175 = compound: CN(C)C/C=C/C(=O)Nc1ccc(O[C@@H]2CCC[C@@H](Nc3ncc(Cl)c(-c4c[nH]c5ccccc45)n3)C2)cc1 [BSJ-01-175]
Rucaparib = compound: CNCc1ccc(-c2[nH]c3cc(F)cc4c3c2CCNC4=O)cc1 [Rucaparib]
INK128/MLN0128 = compound: CC(C)n1nc(-c2ccc3oc(N)nc3c2)c2c(N)ncnc21 [INK128/MLN0128]
[4] = compound: CC(=O)Nc1cccc(-n2c(=O)n(C3CC3)c(=O)c3c(Nc4ccc(I)cc4F)n(C)c(=O)c(C)c32)c1
AZD2014 = compound: CNC(=O)c1cccc(-c2ccc3c(N4CCOC[C@@H]4C)nc(N4CCOC[C@@H]4C)nc3n2)c1 [AZD2014]
Vorinostat = compound: O=C(CCCCCCC(=O)Nc1ccccc1)NO [Vorinostat]
Ceritinib/LDK378 = compound: Cc1cc(Nc2ncc(Cl)c(Nc3ccccc3S(=O)(=O)C(C)C)n2)c(OC(C)C)cc1C1CCNCC1 [Ceritinib/LDK378]
Taselisib/GDC0032 = compound: Cc1nc(-c2cn3c(n2)-c2ccc(-c4cnn(C(C)(C)C(N)=O)c4)cc2OCC3)n(C(C)C)n1 [Taselisib/GDC0032]
BSJ-03-123 [5] = compound: T2, CC(=O)c1c(C)c2cnc(Nc3ccc(N4CCN(CCOCCOCCOCCNC(=O)COc5cccc6c5C(=O)N(C5CCC(=O)NC5=O)C6=O)CC4)cn3)nc2n(C2CCCC2)c1=O [BSJ-03-123]
Neratinib/HKI272 [6] = compound: T3, CCOc1cc2ncc(C#N)c(Nc3ccc(OCc4ccccn4)c(Cl)c3)c2cc1NC(=O)/C=C/CN(C)C [Neratinib/HKI272]
THZ531 [7] = compound: T1, THZ531; experiment: increase in dead-cell fraction, 72 h; higher = more death;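 also: breast cancer cell lines in 384-well plates, stained with Hoechst plus LIVE/DEAD far red dye and imaged, cells above an LDR intensity threshold counted dead, Hoechst-negative corpses included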
THZ1 = compound: CN(C)C/C=C/C(=O)Nc1ccc(C(=O)Nc2cccc(Nc3ncc(Cl)c(-c4c[nH]c5ccccc45)n3)c2)cc1 [THZ1]; experiment: as above
YKL-5-124 = compound: C=CC(=O)Nc1ccc(C(=O)Nc2[nH]nc3c2CN(C(=O)N[C@H](CN(C)C)c2ccccc2)C3(C)C)cc1 [YKL-5-124]; experiment: as above
[8] = compound: CCc1cnn2c(NCc3ccc[n+]([O-])c3)cc(N3CCCC[C@H]3CCO)nc12; experiment: as above
BSJ-03-123 [9] = compound: T2, BSJ-03-123; experiment: as above
Neratinib/HKI272 [10] = compound: T3, Neratinib/HKI272; experiment: as above
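For GR50, 72 h in this document: breast cancer and non-malignant breast epithelial cell lines, Deep Dye Drop or Dye Drop imaging, nine half-log doses, GR normalized to time-zero plates and DMSO-only controls.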

## MGH312
[1]
  GR50, 72 h: > 3.16 µM
Volasertib/BI6727
  GR50, 72 h: 0.00804 µM
THZ531 [2]
  GR50, 72 h: 0.0332 µM
Dasatinib
  GR50, 72 h: 0.00371 µM
[3]
  GR50, 72 h: < 0.001 µM
Doxorubicin
  GR50, 72 h: 0.00621 µM
BSJ-01-175
  GR50, 72 h: 0.00657 µM
Rucaparib
  GR50, 72 h: > 10 µM
INK128/MLN0128
  GR50, 72 h: 0.00245 µM
[4]
  GR50, 72 h: > 1 µM
AZD2014
  GR50, 72 h: < 0.001 µM
Vorinostat
  GR50, 72 h: 0.799 µM
Ceritinib/LDK378
  GR50, 72 h: 1.23 µM
Taselisib/GDC0032
  GR50, 72 h: 0.0386 µM
BSJ-03-123 [5]
  GR50, 72 h: 4.41 µM
Neratinib/HKI272 [6]
  GR50, 72 h: 0.168 µM
THZ531 [7]; 0.0001 µM
  increase in dead-cell fraction: -0.0016
THZ531 [7]; 0.0003162 µM
  increase in dead-cell fraction: 0.006
THZ531 [7]; 0.001 µM
  increase in dead-cell fraction: 0.0097
THZ531 [7]; 0.003162 µM
  increase in dead-cell fraction: 0.002
THZ531 [7]; 0.01 µM
  increase in dead-cell fraction: -0.0045
THZ531 [7]; 0.03162 µM
  increase in dead-cell fraction: 0.0455
THZ531 [7]; 0.1 µM
  increase in dead-cell fraction: 0.662
THZ531 [7]; 0.3162 µM
  increase in dead-cell fraction: 0.72
THZ531 [7]; 1 µM
  increase in dead-cell fraction: 0.639
THZ1; 0.0001 µM
  increase in dead-cell fraction: -0.0154
THZ1; 0.0003162 µM
  increase in dead-cell fraction: 0
THZ1; 0.001 µM
  increase in dead-cell fraction: -0.0061
THZ1; 0.003162 µM
  increase in dead-cell fraction: 0.0002
THZ1; 0.01 µM
  increase in dead-cell fraction: 0.0559
THZ1; 0.03162 µM
  increase in dead-cell fraction: 0.541
THZ1; 0.1 µM
  increase in dead-cell fraction: 0.684
THZ1; 0.3162 µM
  increase in dead-cell fraction: 0.628
THZ1; 1 µM
  increase in dead-cell fraction: 0.699
YKL-5-124; 0.001 µM
  increase in dead-cell fraction: 0.0188
YKL-5-124; 0.003162 µM
  increase in dead-cell fraction: 0.0332
YKL-5-124; 0.01 µM
  increase in dead-cell fraction: 0.0482
YKL-5-124; 0.03162 µM
  increase in dead-cell fraction: 0.0591
YKL-5-124; 0.1 µM
  increase in dead-cell fraction: 0.0669
YKL-5-124; 0.3162 µM
  increase in dead-cell fraction: 0.0808
YKL-5-124; 1 µM
  increase in dead-cell fraction: 0.0821
YKL-5-124; 3.162 µM
  increase in dead-cell fraction: 0.15
YKL-5-124; 10 µM
  increase in dead-cell fraction: 0.61
[8]; 0.0001 µM
  increase in dead-cell fraction: 0.0027
[8]; 0.0003162 µM
  increase in dead-cell fraction: 0.0051
[8]; 0.001 µM
  increase in dead-cell fraction: -0.0065
[8]; 0.003162 µM
  increase in dead-cell fraction: -0.0023
[8]; 0.01 µM
  increase in dead-cell fraction: 0.0052
[8]; 0.03162 µM
  increase in dead-cell fraction: 0.481
[8]; 0.1 µM
  increase in dead-cell fraction: 0.649
[8]; 0.3162 µM
  increase in dead-cell fraction: 0.713
[8]; 1 µM
  increase in dead-cell fraction: 0.67
BSJ-03-123 [9]; 0.001 µM
  increase in dead-cell fraction: -0.0024
BSJ-03-123 [9]; 0.003162 µM
  increase in dead-cell fraction: 0.0067
BSJ-03-123 [9]; 0.01 µM
  increase in dead-cell fraction: 0.0098
BSJ-03-123 [9]; 0.03162 µM
  increase in dead-cell fraction: -0.0134
BSJ-03-123 [9]; 0.1 µM
  increase in dead-cell fraction: 0.0037
BSJ-03-123 [9]; 0.3162 µM
  increase in dead-cell fraction: 0.0116
BSJ-03-123 [9]; 1 µM
  increase in dead-cell fraction: 0.0094
BSJ-03-123 [9]; 3.162 µM
  increase in dead-cell fraction: 0.0031
BSJ-03-123 [9]; 10 µM
  increase in dead-cell fraction: 0.55
Neratinib/HKI272 [10]; 0.0003162 µM
  increase in dead-cell fraction: -0.0056
Neratinib/HKI272 [10]; 0.001 µM
  increase in dead-cell fraction: -0.0054
Neratinib/HKI272 [10]; 0.003162 µM
  increase in dead-cell fraction: -0.0078
Neratinib/HKI272 [10]; 0.01 µM
  increase in dead-cell fraction: 0.0126
Neratinib/HKI272 [10]; 0.03162 µM
  increase in dead-cell fraction: 0.0263
Neratinib/HKI272 [10]; 0.1 µM
  increase in dead-cell fraction: 0.0191
Neratinib/HKI272 [10]; 0.3162 µM
  increase in dead-cell fraction: 0.0224
Neratinib/HKI272 [10]; 1 µM
  increase in dead-cell fraction: 0.0395
Neratinib/HKI272 [10]; 3.162 µM
  increase in dead-cell fraction: 0.0962

Source: the supplement of paper PMC9663587
